Where two headings read alike, the source gives them in different places.
How the values were obtained:
[1] = tested on: HCV genotype 1b (Con1) replicon in HUH-7 cells; assay: HCV replicon luciferase reporter assay, genotype 1b; type: cell-based; details: Hepatitis C virus, Huh-7, 72 h, HCV genotype 1b replicon luciferase, 3 days incubation, read-out: LE_1b (EC50, range)
Outline: (§1)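 Replicon inhibition for both genotypes was measured as Renilla luciferase signal (EnduRen, 7.5 μM final, 2 h) after 3-day, 37° C exposure of replicon-bearing HUH-7 cells in 4% FCS DMEM, 0.5% DMSO. The 1b construct carries S1179I; the 1a H77 construct carries P1496L and S2204I. Twenty-point, 3-fold dilutions were fitted four-parametrically for EC50, and CC50 was taken from multiplexed Cell Titer-Blue.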

[2] = tested on: HCV genotype 1a (H77 strain) replicon in HUH-7 cells; assay: HCV replicon luciferase reporter assay, genotype 1a; type: cell-based; details: Hepatitis C virus, Huh-7, 72 h, HCV genotype 1a replicon luciferase, 3 days incubation, read-out: LE_1a (EC50, range)
Outline: as §1

COc1cc2c(OC)cnc(O[C@@H]3C[C@H]4C(=O)N[C@]5(C(=O)NS(=O)(=O)C6(CO)CC6)C[C@H]5/C=C\CC[C@@H](C)C[C@@H](C)[C@H](NC(=O)OC(C)(C)C)C(=O)N4C3)c2cc1F [Compound 4122, tert-butyl (2R,6S,7R,9R,13aS,14aR,16aS,Z)-2-(7-fluoro-4,6-dimethoxyisoquinolin-1-yloxy)-14a-(1-(hydroxymethyl)cyclopropylsulfonylcarbamoyl)-7,9-dimethyl-5,16-dioxo-1,2,3,5,6,7,8,9,10,11,13a,14,14a,15,16,16a-hexadecahydrocyclopropa[e]pyrrolo[1,2-a][1,4]diazacyclopentadecin-6-ylcarbamate]
EC50 [1]: < 5.46 nM
EC50 [2]: < 5.46 nM

COc1cc2c(OC)cnc(O[C@@H]3C[C@H]4C(=O)N[C@]5(C(=O)NS(=O)(=O)C6(CO)CC6)C[C@H]5/C=C\CC[C@H](C)C[C@@H](C)[C@H](NC(=O)OC(C)(C)C)C(=O)N4C3)c2cc1F [Compound 4123, tert-butyl (2R,6S,7R,9S,13aS,14aR,16aS,Z)-2-(7-fluoro-4,6-dimethoxyisoquinolin-1-yloxy)-14a-(1-(hydroxymethyl)cyclopropylsulfonylcarbamoyl)-7,9-dimethyl-5,16-dioxo-1,2,3,5,6,7,8,9,10,11,13a,14,14a,15,16,16a-hexadecahydrocyclopropa[e]pyrrolo[1,2-a][1,4]diazacyclopentadecin-6-ylcarbamate]
EC50 [1]: 4.82 to 103 nM
EC50 [2]: 4.82 to 103 nM

COc1ccc2c(O[C@@H]3C[C@H]4C(=O)N[C@]5(C(=O)NS(=O)(=O)C6(Cl)CC6)C[C@H]5/C=C\CC[C@@H](C)C[C@@H](C)[C@H](NC(=O)OC(C)(C)C(F)(F)F)C(=O)N4C3)ncc(OC)c2c1 [Compound 4124]
EC50 ([1]; GETYPE1B): < 5.46 nM
EC50 ([2]; GETYPE1A): < 5.46 nM

COc1ccc2c(O[C@@H]3C[C@H]4C(=O)N[C@]5(C(=O)NS(=O)(=O)C6(Cl)CC6)C[C@H]5/C=C\CC[C@@H](C)C[C@@H](C)[C@H](NC(=O)OC(C)(C)C)C(=O)N4C3)ncc(OC)c2c1 [Compound 4125, tert-butyl (2R,6S,7R,9R,13aS,14aR,16aS,Z)-14a-(1-chlorocyclopropylsulfonylcarbamoyl)-2-(4,6-dimethoxyisoquinolin-1-yloxy)-7,9-dimethyl-5,16-dioxo-1,2,3,5,6,7,8,9,10,11,13a,14,14a,15,16,16a-hexadecahydrocyclopropa[e]pyrrolo[1,2-a][1,4]diazacyclopentadecin-6-ylcarbamate]
EC50 [1]: < 5.46 nM
EC50 [2]: < 5.46 nM

CCC1(S(=O)(=O)NC(=O)[C@@]23C[C@H]2/C=C\CC[C@H](C)C[C@@H](C)[C@H](NC(=O)OC(C)(C)C(F)(F)F)C(=O)N2C[C@H](Oc4nccc5cc(OC)c(F)cc45)C[C@H]2C(=O)N3)CC1 [Compound 4126]
EC50 ([1]; GETYPE1B): < 5.46 nM
EC50 ([2]; GETYPE1A): < 5.46 nM

CCC1(S(=O)(=O)NC(=O)[C@@]23C[C@H]2/C=C\CC[C@@H](C)C[C@@H](C)[C@H](NC(=O)OC(C)(C)C(F)(F)F)C(=O)N2C[C@H](Oc4nccc5cc(OC)c(F)cc45)C[C@H]2C(=O)N3)CC1 [Compound 4127]
EC50 ([1]; GETYPE1B): < 5.46 nM
EC50 ([2]; GETYPE1A): 4.82 to 103 nM

COc1ccc2c(O[C@@H]3C[C@H]4C(=O)N[C@]5(C(=O)NS(=O)(=O)C6(CF)CC6)C[C@H]5/C=C\CC[C@@H](C)C[C@@H](C)[C@H](NC(=O)OC(C)(C)C(F)(F)F)C(=O)N4C3)nc(-c3ccc(OC(C)C)cc3)cc2c1 [Compound 4128]
EC50 ([1]; GETYPE1B): < 5.46 nM
EC50 ([2]; GETYPE1A): < 5.46 nM

COc1cnc(O[C@@H]2C[C@H]3C(=O)N[C@]4(C(=O)NS(=O)(=O)C5(CF)CC5)C[C@H]4/C=C\CC[C@@H](C)C[C@@H](C)[C@H](NC(=O)OC(C)(C)C(F)(F)F)C(=O)N3C2)c2cccc(Cl)c12 [Compound 4129]
EC50 ([1]; GETYPE1B): < 5.46 nM
EC50 ([2]; GETYPE1A): < 5.46 nM
